# From ChEMBL document CHEMBL3217721 (Medchemcomm, 2012)
# The source made the active and inactive calls. The rule behind the calls is not given here.
# What was measured:
# Tubulin (Homo sapiens) [1] = molecular target: T1, Tubulin (Homo sapiens) (UniProt P68371+Q9H4B7+P0DPH7+P68366+Q13509+Q71U36+P04350+Q3ZCM7+P07437+P68363+Q9BQE3+Q6PEY2+Q13885+Q9BVA1+Q9BUF5); assay: Displacement of [3H]-Colchicine from tubulin (unknown origin) at 5 uM relative to control; format: protein-complex assay
# Tubulin (Homo sapiens) [2] = molecular target: T1, Tubulin (Homo sapiens); assay: Displacement of [3H]-Colchicine from tubulin (unknown origin) at 1 uM relative to control; format: protein-complex assay
# HUVEC [3] = assay: Vascular disrupting activity in HUVEC assessed as cell rounding at 0.1 to 1 uM after 2 hrs by matrigel assay; format: functional, cell-based; conditions: Homo sapiens
# HUVEC [4] = assay: Vascular disrupting activity in HUVEC assessed as disruption of capillary-like network of tubules after 2 hrs by matrigel assay; format: functional, cell-based; conditions: Homo sapiens
# HUVEC [5] = assay: Vascular disrupting activity in HUVEC assessed as disruption of capillary-like network of tubules at 1 uM after 2 hrs by matrigel assay; format: functional, cell-based; conditions: Homo sapiens
# DU-145 = assay: Growth inhibition of human DU145 cells by sulforhodamine B assay; format: functional
# HUVEC [6] = assay: Vascular disrupting activity in HUVEC assessed as disruption of capillary-like network of tubules at 0.01 to 0.1 uM after 2 hrs by matrigel assay; format: functional, cell-based; conditions: Homo sapiens
# SK-OV-3 = assay: Growth inhibition of human SKOV3 cells by sulforhodamine B assay; format: functional
# NCI-H460 = assay: Growth inhibition of human NCI-H460 cells by sulforhodamine B assay; format: functional
# Tubulin = Tubulin (Bos taurus, UniProt Q6B856+Q862L2+Q862F3); assay: Inhibition of bovine brain tubulin polymerization after 20 mins by spectrophotometric analysis
# HUVEC [7] = assay: Vascular disrupting activity in HUVEC assessed as cell rounding at 1 uM after 2 hrs by matrigel assay; format: functional, cell-based; conditions: Homo sapiens
# HUVEC [8] = assay: Vascular disrupting activity in HUVEC assessed as disruption of capillary-like network of tubules at 0.01 to 1 uM after 2 hrs by matrigel assay; format: functional, cell-based; conditions: Homo sapiens
SMILES,inhibition (Tubulin (Homo sapiens) [1]),"GI50 (DU-145; Homo sapiens, DU-145)",GI50 (SK-OV-3),GI50 (NCI-H460),IC50 (Tubulin),GI50 (DU-145),other results
COc1ccc2c(c1N)CCCC=C2c1cc(OC)c(OC)c(OC)c1 [listing 1 of 3 here],91%,,,,,,inhibition (Tubulin (Homo sapiens) [2]): 65%; Activity (HUVEC [3]): Active; Activity (HUVEC [4]): Dose-dependent effect
COc1cc(C2=CCCCc3c2ccc(OC)c3[N+](=O)[O-])cc(OC)c1OC,63%,211 nM,152 nM,216 nM,2500 nM,,Activity (HUVEC [5]): Active; Activity (HUVEC [6]): inactive; Activity (HUVEC [7]): Active
COc1ccc2c(c1N)CCCC=C2c1cc(OC)c(OC)c(OC)c1 [listing 2 of 3 here],,,,,,3.53 nM,
COc1ccc(/C=C\c2cc(OC)c(OC)c(OC)c2)c(O)c1O [COMBRETASTATIN A-1],,33 nM,38 nM,15 nM,,,
COc1ccc2c(c1N)CCCC=C2c1cc(OC)c(OC)c(OC)c1 [listing 3 of 3 here],,,0.0329 nM,,1200 nM,1.11 nM,
COc1ccc(/C=C\c2cc(OC)c(OC)c(OC)c2)cc1O [COMBRETASTATIN A4],,0.54 nM,0.42 nM,2.8 nM,,,Activity (HUVEC [8]): Active
